Assay results: PMC8657848, “Developmental Toxicity and Biotransformation of Two Anti-Epileptics in Zebrafish Embryos and Early Larvae” (International Journal of Molecular Sciences, 2021)
Several values for one entry are separate records, joined by “and”; a condition that tells them apart may be missing. Identical values can stand only once.

Tests used:
zebrafish embryos = details: cited from earlier work; for Teratogenicity on zebrafish development: after 70 h of exposure (time point 72 hpf)
[1] = test system: zebrafish embryos and larvae; test: Morphological evaluation of zebrafish embryos/larvae exposed from 5¼ to 120 hpf; details: for Significant effect on embryo/larva development after exposure to the metabolite: 5¼–120 hpf; for Teratogenicity in zebrafish (conclusion from morphological and analytical assessment): exposure 5¼–120 hpf
Experimental: Each experiment was performed in two biological replicates (n = 2, 20 embryos/replicate) and consisted of a medium control group (EMS), solvent control group(s) (EMS + 0.5% DMSO and/or EMS + 1% DMSO) and four dose groups. […] Embryos were reared until they reached the desired developmental stage, under the same environmental conditions as the adults (28.5 °C ± 0.3 °C with a 14/10 h light/dark cycle) in the incubator (TIN-IN35, Phoenix instrument, Garbsen, Germany).
For the metabolites, E-CBZ (≥98% purity, CAS number: 36507-30-9, Supelco, Merck, Darmstadt, Germany) and HPPH (98% purity, CAS number: 2784-27-2, Sigma-Aldrich®, Merck, Darmstadt, Germany), we only selected one high concentration, 250 µM (see Supplementary Table S1). […] A higher percentage of DMSO was used for E-CBZ for the optimum dissolution of E-CBZ in EMS. Immediately after the selection (see Section 4.1), twenty embryos were randomly distributed in each control and test group. Embryos were exposed at the latest at 5 hpf in a final volume of 300 µL medium at a density of a fish per well.
For each biological replicate (n = 2), zebrafish embryos were morphologically investigated at 5¼, 10, 24, 48, 72, 96 and 120 hpf (Figure 9) using an Olympus CKX41 microscope with an Olympus U-TV0.5XC-3 lighting and an Olympys 4x/0.16 Uplan APO microscope objective (Shinjuku, Tokyo, Japon) to follow the developmental stages described by Kimmel et al.. The 5¼- and 10-hpf time points served as control steps to identify unfertilized or coagulated eggs that were included unwittingly to the experiment and referenced as coagulated in the 24-hpf morphological sheet (see Supplementary Figure S3). A series of morphological parameters were explored, adapted from Nagel et al., depending on the different time points of interest and described previously by our group (see Supplementary Figure S3). All parameters were scored 0 if normal and 1 if malformed. This binary scale was used to facilitate the scoring and no gradation of the severity of the endpoints was evaluated in this study.

[2] = Quantification of compound in stock and culture medium relative to nominal concentration (LC-MS); assay type: physicochemical; details: 96 hpf
Experimental: The control and test mediums were also kept in the same incubator until the last time point of the experiment. The embryo media were renewed every 48 h, to avoid medium acidification and oxygen deprivation. At each medium change and at the last time point of the experiment (Figure 9), the media exposed to the embryos were pooled and kept at −80 °C for further use (n = 3). Moreover, samples from the stock solutions kept at 28.5 °C ± 0.3 °C were also taken at 0 and 120 hpf (n = 3), whereas samples were only taken at 96 hpf for the metabolites medium (E-CBZ and HPPH).

zebrafish embryos/larvae = test: Quantification of parent compounds and metabolites in whole zebrafish embryos/larvae homogenate extracts; details: for Uptake by embryos and larvae (quantified in homogenate extracts): 24 and 120 hpf, CBZ, PHE 31.25, 85, 250 µM, E-CBZ, HPPH 250 µM
Experimental: In three biological replicates (n = 3; 20 embryos/replicate) and at the two desired developmental stages (24 and 120 hpf), embryos/larvae of each test and control group were pooled and then rinsed three times with cold EMS (4 °C) on a mesh (Cell strainer […] Nylon, Steril Falcon®, Durham, NC, USA). Embryos collected at 24 hpf were not dechorionated, as the focus of this study was on the potential formation of the mammalian active metabolites. Moreover, it was argued that the chorion was more permeable than previously believed and that dechorionation could increase background malformations during gross morphology investigation. Embryos/larvae were then transferred and kept for five min in cryotubes (Cryo.S™, Greiner Bio-One, Frickenhausen, Germany) filled with 500 µL of cold embryo medium (4 °C), before being snap-frozen in liquid nitrogen and kept, for later use, at −80 °C (Figure 9).
The extraction preparation was based on Brox et al. for two developmental stages, 24 and 120 hpf, and performed in triplicate for each test group (n = 3, 20 embryos/replicate) (Figure 9). On the day of the extraction procedure, frozen samples (see Section 4.2.1) were thawed on ice and EMS was removed. A volume of 500 µL of acetonitrile (ACN) (purity ≥99.9%, Merck, Darmstadt, Germany) containing the internal standard lamotrigine, LAMO, (≥98% purity, CAS number: 84057-84-1, Sigma-Aldrich, Merck, Darmstadt, Germany) was then added to each tube to reach a final concentration of 0.39 µM, after dilution in HPLC-grade water. Samples were vortexed (VM3, CAT, Germany) for 5 min at a 2000 rotation/min speed, before being placed on ice and ultrasonicated with an Ultrasonic Processor VCX 130 (Sonics, Newtown, CT, USA) fifteen times for 30 s at an 80% amplitude with pause intervals of 30 s. Supernatants of the samples were then centrifuged (Centrifuge 5424 R, Eppendorf, Hamburg, Germany) twice at 4 °C for 15 min at 15,000× g, snap-frozen and kept for later use at −80 °C, whereas the pellets were discarded.
First, both sample types were processed to reach a final percentage of 30% ACN and a concentration of 0.39 µM of the IS, LAMO. […] Calibration curves and quality controls were prepared in their corresponding reaction mixtures to minimize matrix or extraction process effects. The analytical investigations were performed on an Acquity Ultra Performance Liquid Chromatography (UPLC) with sample manager, binary solvent manager, diode array detector and a triple-quadrupole detector (ACQUITY UPLC-triple quadrupole detector, Waters, Milford, CT, USA) equipped with the Masslynx software (version 4.1). […] Separation was accomplished in 6 min, using a flow rate of 0.5 mL/min. The solvent gradient program was set as follows: 85% A/15% B (0–0.5 min); 85–0% A/15–100% B (0.5–3.3 min); 0% A/100% B (3.3–4.4 min); 0–85% A/100–15% B (4.4–4.5 min); 85% A/15% B (4.5–6 min). The column was set at 40 °C and the injection volume was 10 μL. For the mass spectrometric conditions, the following parameters were used in positive ionization mode: capillarity voltage 3.5 kV, extractor voltage 3 V, cone voltage 35 V, Rf lens 0.1 V. The source temperature was set at 120 °C and the desolation temperature at 450 °C. The desolvation gas flow was fixed at 1000 L/h and cone gas flow at 50 L/h. […] The limit of quantification, linearity, matrix effects and specificity of the method developed for each compound were validated based on the European Medicines Agency (EMA) guidelines for bioanalytical method validation and the study from Kislyuk et al..
For the quantification of the metabolites E-CBZ and HPPH, the samples processed were the microsomal incubation reactions (see Section 4.3.2), the zebrafish culture and stock medium (4.2.1) and the zebrafish embryos/larvae extracts (see Section 4.2.3). Samples from the different experiments were also prepared, as for the parent compounds, to reach a final percentage of 30% ACN and a concentration of 0.39 µM of the IS, LAMO.

[3] = CBZ/E-CBZ experiment, 250 µM, 120 hpf, affected/evaluated, replicates 1 and 2
[4] = PHE/HPPH experiment, 250 µM, 120 hpf, affected/evaluated, replicates 1 and 2

## CC1(C)OC(=O)NC1=O [DMO, dimethadione]
Zebrafish embryos
  Teratogenicity on zebrafish development: induced teratogenicity

## NC(=O)N1c2ccccc2C2OC2c2ccccc21 (stereo not drawn) [E-CBZ, carbamazepine-10,11-epoxide]
[1]; 250 µM
  Significant effect on embryo/larva development after exposure to the metabolite: delay in swim bladder inflation at 120 hpf for one replicate
[1]; CBZ 31.25, 85, 250 µM, E-CBZ 250 µM
  Morphological differences compared with the controls before 48 hpf: No statistically significant differences
[1]; [3]
  Deviation Tail Curve: 1/20
  Malformation Head Deviation Eye: 1/20
  Malformation Head Deviation Mouth: 1/20
  Oedema Head: 1/20
  Oedema Pericardium: 1/20
  Oedema Yolk: 1/20
  Swim Bladder Not Inflated: 3/20 and 6/20 *
[1]
  Teratogenicity in zebrafish (conclusion from morphological and analytical assessment): not teratogenic in zebrafish
[2]; 250 µM, culture medium
  Quantified concentration above the nominal concentration: around 20%
[2]; CBZ–E-CBZ, Culture medium, nominal 250 µM
  Percentage of quantified compound concentration relatively to the nominal concentration: 117.3 ± 9.3%
Zebrafish embryos/larvae
  Uptake by embryos and larvae (quantified in homogenate extracts): Uptake of the compounds was also observed
Zebrafish embryos; 2.6 mg/L (10.3 µM), 3 to 144 hpf
  Findings after incubation of zebrafish embryos: lack of findings

## O=C1NC(=O)C(c2ccccc2)(c2ccc(O)cc2)N1 (stereo not drawn) [HPPH, 5-(4-hydroxyphenyl)-5-phenylhydantoin]
[1]; 250 µM
  Significant effect on embryo/larva development after exposure to the metabolite: no significant effect
[1]; [4]
  Deviation Tail Curve: 2/20
  Deviation Tail Tissue Deviation: 1/20
  Malformation Head Deviation Eye: 2/20
  Swim Bladder Not Inflated: 5/20 and 6/20
[1]
  Teratogenicity in zebrafish (conclusion from morphological and analytical assessment): not teratogenic in zebrafish
Zebrafish embryos/larvae
  Uptake by embryos and larvae (quantified in homogenate extracts): Uptake of the compounds was also observed
Zebrafish embryos/larvae; all concentrations
  Internal concentration, times higher at 24 hpf than at 120 hpf: ~5 times

## CN1C(=O)OC(C)(C)C1=O [TMO, trimethadione]
Zebrafish embryos
  Teratogenicity on zebrafish development: induced teratogenicity
